# From US8193248B2, “Contraceptive composition” (Starpharma Pty Limited, priority 2006, dated 2012)
# Columns and labels:
# [1] = system: herpes simplex virus type 2 (HSV-2); conditions: previous studies, cited from earlier work
# [2] = system: motile sperm (normal semen sample); test: modified Sander-Cramer Assay, spermicidal activity; type: cell-based; conditions: control; 30 seconds at room temperature
# Method: This assay determines the sperm-immobilising minimum effective concentration (MEC).
# Serial two-fold dilutions were prepared from stock solutions at 2% (for water soluble compounds) or 4% (for water insoluble compounds). 250 μL of each dilution were mixed with […] of a normal semen sample containing 60×10^6 motile sperm/mL. Normality of the semen samples was assessed with the aid of a CASA system (Hamilton-Thorne, IVOS; Beverly, Mass.). Semen and compound aliquots were microscopically examined while incubating at room temperature for 30 seconds. If any motile spermatozoon were found, either in the initial examination or after one hour incubation in medium, that dilution was labelled as “failed”. The MEC for a given compound was calculated using the highest dilution that induces total sperm immobilization. 6 to 10 semen samples were used to obtain more reliable results. N9 (MEC=˜0.1-0.2 mg/mL) and solvents were run as control.
substance,measurement,setting,value
Nonoxynol-9 [N9],animals infected with HSV-2,[1],29 out of 42
same,relative susceptibility to HSV-2 infection vs control animals,[1]; effective ID of low-dose inoculum in test mice / ID in controls,29.7 times
same,sperm-immobilising minimum effective concentration (MEC),[2],0.1 to 0.2 mg/mL
